Measurements taken from patent US11672795B2, “Compositions and methods for treating pulmonary vascular disease” (UNIVERSITY OF PITTSBURGH-OF THE COMMONWEALTH SYSTEM OF …, priority 2016, dated 2023).
“Also recorded” adds a separate entry of the source. Like-named read-outs stand apart in the source and are kept apart here.

What was measured:
Format in all cases: in vivo, rat
[1] = Left ventricular function and systemic blood pressure in treated monocrotaline-exposed rats; details: for adverse effects on left ventricular cardiac function: daily BAPN or daily i.p. verteporfin 25 mg/kg
[2] = system: monocrotaline-exposed rats; assay: Atomic force microscopy of pulmonary arteriolar stiffness in monocrotaline-exposed rats
Description: Rat lungs were inflated with 0.025 g of OCT by g of body weight, frozen on liquid nitrogen vapor and store at −80° C. Rat lung slices (10 μm thickness) were cut out from their glass slide and the fragment of glass containing the sample was glued on the bottom of a 50 mm dish (Willco Glass Bottom Dish). Before measurements the sample was first rinsed and after covered with 4 ml of PBS 1×. The mechanical properties of the samples were studied using a BioScope Catalyst atomic force microscope (Bruker) coupled with and optical microscope (Leica DMI6000B) that enables, by phase contrast, to pinpoint the areas of interest. For each sample, from five to a maximum of 9 vessels (<100 μm diameter) were analyzed using the “Point and Shoot” method, collecting from 35 to 80 force-distance curves at just as many discrete points. The experiments of microindentation were performed in PBS using a probe with a Borosilicate Glass spherical tip (5 μm of diameter) and a cantilever with a nominal spring constant of 0.06 N/m (Novascan). Indentations were carried out using a velocity of 2 μm/s, in relative trigger mode and by setting the trigger threshold to 2 nN. The apparent Young's modulus was calculated using the NanoScope Analysis 1.50 software (Bruker), fitting the force curves to the Hertz spherical indentation model and using a Poisson's ratio of 0.4. To avoid large indentation, a minimum and a maximum Force Fit Boundary of 5% and 25% respectively of the whole force curve was taken into account for the fit.

[3] = system: monocrotaline-exposed rats; assay: Histology and immunofluorescence of lung sections of monocrotaline-exposed rats; details: for CD31/PCNA and α-SMA/PCNA double-positive cells (vascular endothelial and smooth muscle proliferation) / GLS1 vascular intensity / YAP1+ cells / vessel thickness and muscularization (vascular remodeling): daily BAPN or daily i.p. verteporfin 25 mg/kg; for pulmonary arteriolar muscularization / pulmonary arteriolar remodeling / Ki67/PCNA positive cells in CD31/vWF+ endothelial compartment / Ki67/PCNA positive cells in α-SMA+ medial (smooth muscle) compartment: daily i.p. 10 mg/kg; for pulmonary arteriolar muscularization / pulmonary arteriolar remodeling: C968 from day 2, CB839 from day 7
Description: Lung sections (5 μm) were deparaffinized and high temperature antigen retrieval was performed, followed by blocking in TBS/BSA 5%, 10% donkey serum and exposure to primary antibody and biotinylated secondary antibody (Vectastain ABC kit, Vector Labs) for immunohistochemistry or Alexa 488, 568 and 647-conjugated secondary antibodies (Thermo Fisher Scientific) for immunofluorescence. A primary antibody against YAP1 (#4912; 1/200 or sc101199; 1/50) were obtained from Cell Signaling and Santa Cruz Biotechnology respectively. Primary antibodies against, GLS1 (ab156876; 1/100), PC (ab115579; 1/100), LDHA (ab47010; 1/200) and α-SMA (ab32575; 1/1000) were purchased from Abcam. A primary antibody against CD31 (sc-1506; 1/100), was purchased from Santa Cruz Biotechnology. A primary antibody against PCNA (13-3900, 1/100) was purchased from Thermo Fisher Scientific. In most cases, color development was achieved by adding streptavidin-biotinylated alkaline phosphatase complex (Vector Labs) followed by Vector Red alkaline phosphatase substrate solution (Vector Labs). Levamisole was added to block endogenous alkaline phosphatase activity (Vector Labs). Pictures were obtained using an Olympus Bx51 microscope or ZEISS LSM Exciter confocal microscope. Small pulmonary vessels (<100 µm diameter) present in a given tissue section (>10 vessels/section) that were not associated with bronchial airways were selected for analysis (N>5 animals/group). Intensity of staining was quantified using ImageJ software (NIH). Degree of pulmonary arteriolar muscularization was assessed in paraffin-embedded lung sections stained for α-SMA by calculation of the proportion of fully and partially muscularized peripheral (<100 μm diameter) pulmonary arterioles to total peripheral pulmonary arterioles, as previously described (12). All measurements were performed blinded to condition.
(§1) To induce PH, male Sprague-Dawley rats (10-14 week old) were injected intraperitoneally with 60 mg/kg monocrotaline (Sigma-Aldrich). After two days, rats underwent intraperitoneal injection daily with 25 mg/kg of verteporfin (Active Biochemicals Company, Ltd) solubilized in 5% dimethyl sulfoxide (DMSO, Sigma-Aldrich). Two days after the last injection on day 21 post-monocrotaline injection, right heart catheterization was performed followed by harvest of lung tissue and CD31+ cells for RNA or protein extraction, paraffin embedding, or cryopreservation with OCT (Sigma-Aldrich), as we described (2).
(§2) To induce PH, male Sprague-Dawley rats (10-14 week old) were injected intraperitoneally with 60 mg/kg monocrotaline (Sigma-Aldrich). After two days, serial intraperitoneal injections were given daily of C968 (10 mg/kg, Sigma-Aldrich), and after seven days post-monocrotaline injection, serial intraperitoneal injections were given daily of CB839 (10 mg/kg, Selleck Chemicals). Two days after the last injection on day 21 post-monocrotaline injection, right heart catheterization was performed followed by harvest of lung tissue and CD31+ cells for RNA or protein extraction, paraffin embedding, or cryopreservation with OCT (Sigma-Aldrich), as we described (2).

[4] = system: GLS1; details: monocrotaline-exposed rats; for GLS activity: daily BAPN or daily i.p. verteporfin 25 mg/kg; for GLS1 activity in whole rat lung: daily i.p. 10 mg/kg, C968 from day 2 (prevention), CB839 from day 7 (reversal), vs vehicle
Description: According to the manufacturer instructions (Glutaminase Microplate Assay Kit, Cohesion Biosciences), flash frozen rat lung tissue (0.1 g/sample) was homogenized in 1 mL of assay buffer on ice and centrifuged at 8000 g 4° C. for 10 min. Protein concentration was determined by Bradford assay. Samples, normalized to total protein (100 μg), were incubated with kit reagents for 1 hr at 37° C., and absorbances were measured at 420 nm.
as §1, §2

[5] = daily BAPN or daily i.p. verteporfin 25 mg/kg
[6] = daily i.p. 10 mg/kg C968 or CB-839, data not shown
[7] = C968 from day 2, CB839 from day 7, 10 mg/kg
[8] = C968 from day 2, CB839 from day 7, listed as CB-839, 10 mg/kg

For `N#CCCN` [BAPN, β-aminoproprionitrile], the “adverse effects on left ventricular cardiac function” value ([1]; data not shown) was “without adverse effects”, the “pulmonary arteriolar (<100 μm diameter) stiffness, atomic force microscopy” value (“pulmonary arteriolar … atomic force microscopy” below) [2, 5] was “decreased” and the “CD31/PCNA and α-SMA/PCNA double-positive cells (vascular endothelial and smooth muscle proliferation)” value [3] was “decreased”. For the same compound, the GLS1 vascular intensity [3] was “decreased”, the “YAP1+ cells” value [3] was “decreased” and the “vessel thickness and muscularization (vascular remodeling)” value (from here on “vessel thickness and muscularization”) [3] was “decreased; also recorded: ameliorated”. The GLS activity [4] was “decreased”.

With `CN(C)c1ccc(C2Nc3ccc4ccccc4c3C3=C2C(=O)CC(C)(C)C3)cc1Br` (centres unmarked) [C968, 5-(3-Bromo-4-(dimethylamino)phenyl)-2,2-dimethyl-2,3,5,6-tetrahydrobenzo[a]phenanthridin-4(1H)-one] the “adverse effects on left ventricular function” value [1, 6] was “without adverse effects”, the “adverse effects on systemic blood pressure” value [1, 6] was “without adverse effects” and the pulmonary arteriolar muscularization [3] was “significantly decreased”. The pulmonary arteriolar remodeling [3] was “significantly decreased”, the “Ki67/PCNA positive cells in CD31/vWF+ endothelial compartment” value [3, 7] was “reduced; also recorded: decreased” and the “Ki67/PCNA positive cells in α-SMA+ medial (smooth muscle) compartment” value [3, 7] was “reduced; also recorded: decreased”. The “GLS1 activity in whole rat lung” value [4] was “decreased”.

With `O=C(Cc1cccc(OC(F)(F)F)c1)Nc1ccc(CCCCc2nnc(NC(=O)Cc3ccccn3)s2)nn1` [CB839] the “adverse effects on left ventricular function” value [1, 6] was “without adverse effects”, the “adverse effects on systemic blood pressure” value [1, 6] was “without adverse effects” and the “pulmonary arteriolar … atomic force microscopy” value ([2]; daily CB839 vs vehicle) was “decreased”. For the same compound, the pulmonary arteriolar muscularization [3] was “significantly decreased”, the pulmonary arteriolar remodeling [3] was “significantly decreased” and the “Ki67/PCNA positive cells in CD31/vWF+ endothelial compartment” value [3, 7] was “reduced”. For the same compound, the “Ki67/PCNA positive cells in α-SMA+ medial (smooth muscle) compartment” value [3, 7] was “reduced”, the “Ki67/PCNA positive cells in CD31/vWF+ endothelial compartment” value [3, 8] was “decreased” and the “Ki67/PCNA positive cells in α-SMA+ medial (smooth muscle) compartment” value [3, 8] was “decreased”. For the same compound, the “GLS1 activity in whole rat lung” value [4] was “decreased”.

In the case of `C=Cc1c(C)c2cc3nc(cc4[nH]c(cc5nc(cc1[nH]2)C(C)=C5CCC(=O)O)c(CCC(=O)OC)c4C)[C@@]1(C)C3=CC=C(C(=O)OC)[C@H]1C(=O)OC` [Verteporfin, 3-[(23S,24R)-14-ethenyl-5-(3-methoxy-3-oxopropyl)-22,23-bis(methoxycarbonyl)-4,10,15,24-tetramethyl-25,26,27,28-tetraazahexacyclo[16.6.1.1^3,6.1^8,11.1^13,16.0^19,24]octacosa-1,3,5,7,9,11(27),12,14,16,18(25),19,21-dodecaen-9-yl]propanoic acid], the “adverse effects on left ventricular cardiac function” value ([1]; data not shown) is reported as “without adverse effects”, the “adverse effects on systemic blood pressure” value ([1]; daily i.p. verteporfin 25 mg/kg, data not shown) is reported as “without adverse effects” and the “pulmonary arteriolar … atomic force microscopy” value [2, 5] is reported as “decreased”. For the same compound, the “CD31/PCNA and α-SMA/PCNA double-positive cells (vascular endothelial and smooth muscle proliferation)” value [3] was “decreased”, the GLS1 vascular intensity [3] was “decreased” and the “YAP1+ cells” value [3] was “decreased”. For the same compound, the “vessel thickness and muscularization” value [3] was “decreased”, the “CD31/PCNA and α-SMA/PCNA double-positive cells (vascular endothelial and smooth muscle proliferation)” value ([3]; listed as verteporfin) was “improved” and the “vessel thickness and muscularization” value ([3]; listed as verteporfin) was “reductions”. The GLS activity [4] was “decrease” and the GLS activity ([4]; listed as verteporfin) was “improved”.
